This assay deals with T1, 20S proteasome β5 subunit (Homo sapiens, UniProt P28074).
T1 construct: gene PSMB5; human erythrocyte 20S proteasome (constitutive); with other subunits of the 20S proteasome
T1 sequence (P28074 60-263): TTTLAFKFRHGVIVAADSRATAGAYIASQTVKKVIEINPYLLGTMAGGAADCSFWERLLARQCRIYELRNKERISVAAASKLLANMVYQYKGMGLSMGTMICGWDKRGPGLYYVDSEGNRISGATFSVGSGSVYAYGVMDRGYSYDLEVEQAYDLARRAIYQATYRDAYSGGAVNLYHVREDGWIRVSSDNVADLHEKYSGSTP
The assay is described as follows: fluorogenic Suc-LLVY-AMC chymotrypsin-like activity assay. The class given is biochemical.

This is an account of results in article PMC11477218 (International Journal of Molecular Sciences, 2024).

Where two headings read alike, the source gives them in different places.

The term IC50 denotes the concentration needed to halve the response being measured. `COc1cc2ccn(C/C=C/C(=O)NCCC(C)C)c(=O)c2cc1OC` [AM12]: for the setting “read-out: IC50”, the half-maximal inhibitory concentration (IC50) was 12.2 ± 1.8 µM. As to `O=c1c(O)c(-c2ccc(O)c(O)c2)oc2cc(O)cc(O)c12` [quercetin], inhibition was half-maximal at 2.96 ± 0.77 µM (IC50).
